# In paper PMC3525729 (Bioorganic & medicinal chemistry letters, 2012):
# Where a chain is given by its changes, count along the chain named.
# Columns and labels:
# rM5 = target: T1, rM5 (Rattus norvegicus, UniProt P08911); experiment: CRC screened in agonist mode, rM5; format: cell-based
# T1 sequence (P08911 1-531): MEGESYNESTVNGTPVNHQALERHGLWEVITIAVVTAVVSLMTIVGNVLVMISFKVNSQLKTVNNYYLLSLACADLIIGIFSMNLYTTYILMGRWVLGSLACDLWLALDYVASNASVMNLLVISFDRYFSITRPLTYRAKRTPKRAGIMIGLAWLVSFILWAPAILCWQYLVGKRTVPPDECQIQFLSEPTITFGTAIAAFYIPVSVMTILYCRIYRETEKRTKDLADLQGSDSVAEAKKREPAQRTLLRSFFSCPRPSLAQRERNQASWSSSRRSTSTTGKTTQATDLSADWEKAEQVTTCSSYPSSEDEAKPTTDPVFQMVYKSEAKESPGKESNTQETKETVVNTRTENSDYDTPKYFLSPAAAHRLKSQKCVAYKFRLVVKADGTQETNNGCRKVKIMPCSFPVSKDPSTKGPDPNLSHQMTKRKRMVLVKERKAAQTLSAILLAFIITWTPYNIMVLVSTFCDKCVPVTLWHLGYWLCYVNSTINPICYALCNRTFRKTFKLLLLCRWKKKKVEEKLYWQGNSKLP
# rM2 = target: T2, rM2 (Rattus norvegicus, UniProt P10980); experiment: CRC screened as antagonist in presence of ACh EC80, rM2; format: cell-based; conditions: antagonist mode
# T2 sequence (P10980 1-466): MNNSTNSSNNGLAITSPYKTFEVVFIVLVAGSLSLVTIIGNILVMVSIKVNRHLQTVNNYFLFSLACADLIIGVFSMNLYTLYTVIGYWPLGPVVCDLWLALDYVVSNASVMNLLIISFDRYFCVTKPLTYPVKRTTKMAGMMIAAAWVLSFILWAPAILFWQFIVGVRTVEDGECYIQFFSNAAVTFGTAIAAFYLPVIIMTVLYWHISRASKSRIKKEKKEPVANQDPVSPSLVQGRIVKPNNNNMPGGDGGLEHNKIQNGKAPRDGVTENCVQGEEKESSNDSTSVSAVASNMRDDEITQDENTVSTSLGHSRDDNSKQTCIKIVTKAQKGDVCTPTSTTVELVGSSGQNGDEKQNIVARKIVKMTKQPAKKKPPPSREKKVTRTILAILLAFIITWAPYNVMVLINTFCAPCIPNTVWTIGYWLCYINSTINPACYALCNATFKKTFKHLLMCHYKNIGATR
# rM3 = rM3 (Rattus norvegicus, UniProt P08483); experiment: CRC screened as antagonist in presence of ACh EC80, rM3; format: cell-based; conditions: antagonist mode
# hM2 = target: T3, hM2 (Homo sapiens, UniProt P08172); experiment: Human CRC screened as antagonist, hM2; format: cell-based; conditions: ACh EC80
# T3 sequence (P08172 1-466): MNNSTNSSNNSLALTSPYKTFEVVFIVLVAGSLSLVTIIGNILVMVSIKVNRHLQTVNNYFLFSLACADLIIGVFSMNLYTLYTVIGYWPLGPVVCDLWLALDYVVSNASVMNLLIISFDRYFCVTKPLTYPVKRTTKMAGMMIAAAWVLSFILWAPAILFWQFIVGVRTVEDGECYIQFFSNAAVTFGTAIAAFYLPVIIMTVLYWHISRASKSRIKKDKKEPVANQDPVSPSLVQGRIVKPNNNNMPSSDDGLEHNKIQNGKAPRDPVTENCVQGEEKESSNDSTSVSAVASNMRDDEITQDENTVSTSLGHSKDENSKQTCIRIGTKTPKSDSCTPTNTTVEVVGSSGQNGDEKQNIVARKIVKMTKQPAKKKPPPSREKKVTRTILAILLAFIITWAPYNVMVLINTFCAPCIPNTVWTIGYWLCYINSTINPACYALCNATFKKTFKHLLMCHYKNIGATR
# hM1 = target: T4, hM1 (Homo sapiens, UniProt P11229); conditions: screened as agonist
# T4 sequence (P11229 1-460): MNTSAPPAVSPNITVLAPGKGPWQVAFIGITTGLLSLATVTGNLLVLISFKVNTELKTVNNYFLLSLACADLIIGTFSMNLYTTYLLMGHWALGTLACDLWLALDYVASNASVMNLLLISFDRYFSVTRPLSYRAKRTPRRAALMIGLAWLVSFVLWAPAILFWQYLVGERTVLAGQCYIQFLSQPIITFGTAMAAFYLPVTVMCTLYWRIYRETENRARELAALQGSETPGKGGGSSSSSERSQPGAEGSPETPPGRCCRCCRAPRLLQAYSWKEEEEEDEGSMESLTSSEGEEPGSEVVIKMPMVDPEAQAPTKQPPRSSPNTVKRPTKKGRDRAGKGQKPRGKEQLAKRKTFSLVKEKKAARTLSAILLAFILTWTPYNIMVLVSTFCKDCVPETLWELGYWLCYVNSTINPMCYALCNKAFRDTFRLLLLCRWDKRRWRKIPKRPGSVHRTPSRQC
# rM4 = target: T5, rM4 (Rattus norvegicus, UniProt P08485); experiment: CRC screened as antagonist in presence of ACh EC80, rM4; format: cell-based
# T5 sequence (P08485 1-478): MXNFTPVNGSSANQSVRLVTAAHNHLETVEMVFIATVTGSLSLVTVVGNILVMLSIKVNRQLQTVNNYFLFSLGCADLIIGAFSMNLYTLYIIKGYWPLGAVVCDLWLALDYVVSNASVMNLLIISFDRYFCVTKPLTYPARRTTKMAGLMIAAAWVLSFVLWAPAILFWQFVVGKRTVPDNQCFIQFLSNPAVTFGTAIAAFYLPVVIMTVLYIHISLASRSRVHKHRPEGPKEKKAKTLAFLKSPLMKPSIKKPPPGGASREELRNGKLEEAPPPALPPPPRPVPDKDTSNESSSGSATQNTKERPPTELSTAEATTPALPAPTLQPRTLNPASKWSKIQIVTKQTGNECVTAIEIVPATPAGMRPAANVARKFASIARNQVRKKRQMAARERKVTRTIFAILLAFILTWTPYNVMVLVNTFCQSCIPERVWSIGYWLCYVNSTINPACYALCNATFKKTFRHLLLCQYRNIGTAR
# M1 = target: T6, M1 (Rattus norvegicus, UniProt P08482); experiment: M1 agonist screen; format: cell-based; conditions: for M1 activation when screened as an agonist: agonist mode
# T6 sequence (P08482 1-460): T4 sequence (P11229 1-460) with A5V, T254S, P309S, R320K, A337G, I413V
# [1] = cited from earlier work
# Rat M1 = target: T7, Rat M1 (Rattus norvegicus, UniProt P08482); experiment: CRC screened as antagonist in presence of ACh EC80, Rat M1; format: cell-based; conditions: antagonist mode
# T7 sequence (P08482 1-460): T4 sequence (P11229 1-460) with A5V, T254S, P309S, R320K, A337G, I413V
# M4 = target: T8, M4 (Homo sapiens, UniProt P08173); experiment: M4 antagonist screen; format: cell-based
# T8 sequence (P08173 1-479): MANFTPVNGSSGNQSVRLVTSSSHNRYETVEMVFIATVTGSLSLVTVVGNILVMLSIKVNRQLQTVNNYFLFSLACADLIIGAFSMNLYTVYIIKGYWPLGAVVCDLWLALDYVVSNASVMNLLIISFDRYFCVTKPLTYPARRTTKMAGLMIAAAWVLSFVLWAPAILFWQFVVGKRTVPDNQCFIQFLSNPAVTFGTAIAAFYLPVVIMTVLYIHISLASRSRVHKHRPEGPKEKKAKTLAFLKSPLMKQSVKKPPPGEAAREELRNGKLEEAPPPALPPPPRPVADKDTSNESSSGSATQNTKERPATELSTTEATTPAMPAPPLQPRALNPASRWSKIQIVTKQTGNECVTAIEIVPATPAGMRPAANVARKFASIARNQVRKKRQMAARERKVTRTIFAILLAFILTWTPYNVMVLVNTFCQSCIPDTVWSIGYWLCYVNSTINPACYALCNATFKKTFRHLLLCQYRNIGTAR
# M5 = target: T9, M5 (Homo sapiens, UniProt P08912); experiment: M5 antagonist screen; format: cell-based
# T9 sequence (P08912 1-532): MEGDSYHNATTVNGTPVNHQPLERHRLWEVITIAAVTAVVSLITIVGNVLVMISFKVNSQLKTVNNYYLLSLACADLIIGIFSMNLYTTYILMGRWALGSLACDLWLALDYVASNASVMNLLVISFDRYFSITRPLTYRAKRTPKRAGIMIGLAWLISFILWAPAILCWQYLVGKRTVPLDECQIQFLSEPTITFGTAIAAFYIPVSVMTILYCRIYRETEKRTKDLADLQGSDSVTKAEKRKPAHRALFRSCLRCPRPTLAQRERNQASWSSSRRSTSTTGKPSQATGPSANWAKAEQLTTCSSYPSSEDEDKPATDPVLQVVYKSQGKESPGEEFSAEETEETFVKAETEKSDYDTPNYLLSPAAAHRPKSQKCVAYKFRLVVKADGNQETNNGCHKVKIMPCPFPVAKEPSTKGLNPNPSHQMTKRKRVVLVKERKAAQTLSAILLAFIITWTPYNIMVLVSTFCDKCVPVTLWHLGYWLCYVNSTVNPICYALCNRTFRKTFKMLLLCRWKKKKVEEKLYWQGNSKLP
# Chain of rM3 (P08483 whole entry): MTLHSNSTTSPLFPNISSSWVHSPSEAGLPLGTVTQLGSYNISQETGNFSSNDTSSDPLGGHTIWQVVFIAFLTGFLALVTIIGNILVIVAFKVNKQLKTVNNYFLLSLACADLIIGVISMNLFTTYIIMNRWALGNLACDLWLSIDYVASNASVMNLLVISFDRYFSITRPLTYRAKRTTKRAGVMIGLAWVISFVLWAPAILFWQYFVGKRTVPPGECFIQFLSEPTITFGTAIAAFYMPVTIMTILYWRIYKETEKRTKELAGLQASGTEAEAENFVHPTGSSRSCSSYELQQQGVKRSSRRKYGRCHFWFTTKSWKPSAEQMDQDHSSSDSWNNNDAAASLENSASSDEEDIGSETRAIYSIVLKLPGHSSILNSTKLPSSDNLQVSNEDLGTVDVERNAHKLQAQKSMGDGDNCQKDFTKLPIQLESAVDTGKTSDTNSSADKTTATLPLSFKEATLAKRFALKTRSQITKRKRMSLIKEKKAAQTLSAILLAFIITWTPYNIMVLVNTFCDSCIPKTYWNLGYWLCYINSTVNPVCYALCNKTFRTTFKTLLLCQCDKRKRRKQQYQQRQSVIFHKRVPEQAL
structure (smiles),measurement,setting,value
Cc1ccccc1CN1CCC(N2CCC(n3c(=O)[nH]c4ccccc43)CC2)CC1 [TBPB],EC50,rM5,> 30 µM
same,rM2 pIC50,rM2,5.89
same,rM3 pIC50,rM3,5.26
same,hM2 pIC50,hM2,5.46
same,hM1 % ACh Max,hM1,40 % ACh Max
Cc1ccccc1CN1CCC(N2CCC(n3c(=O)[nH]c4ccccc43)C(F)C2)CC1 (stereo not shown) [compound 9],IC50,rM4,> 10 µM
same,rM4 % ACh Max,"rM4; antagonist mode, ACh EC80",26.6±3.4 % ACh Max
same,rM4 pIC50,"rM4; antagonist mode, ACh EC80",5.29±0.09
same,M1 activation when screened as an agonist,M1,neither 9 nor 10 elicited M1 activation
same,pKa of the central piperidine nitrogen atom,[1],9.4
Cc1ccccc1CN1CCC(N2CC3CC(n4c(=O)[nH]c5ccccc54)CC3C2)CC1 (stereo not shown) [compound 10],Rat M1 % ACh Max,Rat M1,−1.07±1.3 % ACh Max
same,Rat M1 pIC50,Rat M1,5.20±0.04
same,M1 activation when screened as an agonist,M1,neither 9 nor 10 elicited M1 activation
CCOC(=O)N1CCC(N2CCC[C@@H](NC(=O)c3cccc(Br)c3)C2)CC1 [compound 14],M1 pEC50,M1,5.69±0.08
CCOC(=O)N1CCC(N2CCC[C@@H](NC(=O)c3ccc(C(F)(F)F)nc3)C2)CC1 [compound 16],IC50,M4,> 10 µM
same,IC50,M5,> 10 µM
